Assay results reported in US8895744B2, “Alfa-carboline inhibitors of NPM-ALK, RET, and Bcr-Abl” (Universita' Degli Studi di Milano-Bicocca, priority 2008, dated 2014).

Experiments:
[1] = molecular target: T1, Recombinant Ret protein (Homo sapiens, UniProt P07949); experiment: RET kinase inhibitory activity, ELISA-based in vitro kinase assay; format: biochemical; conditions: purified Ret, 0.3 mM ATP
T1 construct: made in house; host or cells: Sf9 cells (baculovirus)
Experimental: (§1) Recombinant ALK kinase was expressed in Sf9 insect cells using the pBlueBacHis2C baculovirus vector system and purified using an anion exchange Fast Flow Q-sepharose column (Amersham-Pharmacia Biotech) followed by HiTrap™-nickel affinity column (Amersham-Pharmacia Biotech). Purified ALK protein was used to screen inhibitors in the ELISA-based kinase assay. A Nunc Immuno 96 well plate was incubated overnight at 37° C. with coating solution (125 μL/well) containing ALK peptide substrate ([…]) (SEQ ID NO: 1) at various concentrations in PBS. Wells were then washed with 200 μL of wash buffer (PBS-Tween 0.05%) and left to dry for at least 2 h at 37° C. The kinase reaction was performed in the presence of 50 mM Tris pH 7.5, 5 mM MnCl2, 5 mM MgCl2, 0.3 mM ATP and purified rALK in a total volume of 100 μL/well at 30° C. for 15 min. For inhibitor testing the reaction mix was preincubated with the inhibitor or solvent control for 10 min at room temperature before transferring to the ELISA plate. After the reaction wells were washed 5 times with 200 μL of wash buffer. Phosphorylated peptide was detected using 100 μL/well of a mouse monoclonal anti-phosphotyrosine antibody (clone 4G10 Upstate Biotech Ltd) diluted 1:2000 in PBS+4% BSA. After 30 min incubation at room temperature the antibody was removed and wells were washed as described above. 100 μL of a secondary antibody (anti-mouse IgG, Horseradish Peroxidase linked whole antibody, Amersham Pharmacia Biotech) diluted 1:1000 in PBS+4% BSA was added to each well and the plate was incubated again for 30 min at room temperature before washing as above. The plate was developed using 100 μL/well TMB Substrate Solution (Endogen) and the reaction was stopped by adding an equiv.ual volume of H2SO4 0.36 M. Finally, the absorbance was read at 450 nm using an Ultrospec® 300 spectrophotometer (Amersham-Pharmacia Biotech). The concentration of the test solution showing 50% inhibition as compared with the control was expressed as IC50 (μM).
38. RET Kinase Inhibitory Activity
(§2) Method: ELISA-Based In Vitro Kinase Assay
(§3) Recombinant Ret protein was expressed in Sf9 cells using the pBlueBacHis2C baculovirus expression vector. Ret was purified using an anion exchange Fast Flow Q-sepharose column (Amersham-Pharmacia Biotech) followed by HiTrap™-nickel affinity column (Amersham-Pharmacia Biotech). Purified Ret was used in the ELISA-based kinase assay to screen inhibitors as described above. The kinase reaction was performed in the presence of 50 mM Tris pH 7.5, 1 mM MnCl2, 5 mM MgCl2, 0.3 mM ATP, peptide substrate ([…]) (SEQ ID NO: 1) and purified Ret. The concentration of the test solution showing 50% inhibition as compared with the control was expressed as IC50 (μM).

[2] = molecular target: T2, Recombinant Abl T315I protein (Homo sapiens, UniProt P00519, T315I); experiment: Abl T315I mutant kinase inhibitory activity, ELISA-based in vitro kinase assay; format: biochemical; conditions: purified Abl T315I, 0.3 mM ATP
T2 construct: made in house; host or cells: Sf9 cells (baculovirus)
Experimental: as §1
37. Abl T315I Mutant Kinase Inhibitory Activity
as §2
as §3, with “Abl T315I” for “Ret”, “Abl T315I.” for “Ret.”

[3] = molecular target: T3, Recombinant ALK kinase (Homo sapiens, UniProt Q9UM73); experiment: ALK kinase inhibitory activity, ELISA-based in vitro kinase assay; format: biochemical; conditions: purified rALK, 0.3 mM ATP, read-out: ALK IC50
T3 construct: made in house; host or cells: Sf9 insect cells (baculovirus)
Experimental: 36. Alk Kinase Inhibitory Activity
as §2, §1

[4] = system: parent untransformed BaF3 cells; experiment: Tritiated thymidine uptake cell proliferation assay, parental BaF3 (control); format: cell-based; conditions: Mus musculus, 3[H]-thymidine uptake, 72 h, medium with IL-3, read-out: BaF parental IC50
Experimental: (§4) Method: Tritiated Thymidine Uptake Cell Proliferation Assay
(§5) The following procedure was used with parent untransformed BaF3 cells, BaF3 cells transformed with the oncogenic fusion protein NPM/ALK, NPM/ALK positive SUDHL-1 cells, ALK-negative U937 cells, NPM/ALK positive KARPAS-299 cells. The parent untransformed BaF3 cells and Alk-negative U937 cells are used as controls. Cells were seeded in U-bottomed 96-well plates at 10 000 cells/well in a volume of 100 μL in supplemented medium. In the case of the parent untransformed BaF3 cells, the medium was supplemented with IL-3. Serial dilutions of inhibitors were added to the appropriate wells and volumes adjusted to 200 μL. Controls were treated with the equivalent volume of vehicle, DMSO, alone. Plates were incubated at 37° C. for 72 h. ^3[H]-thymidine (1 μCi/well) was added for the last 16 h of incubation. Cells were harvested on to paper filters and ^3[H]-thymidine incorporation was measured using a β scintillation counter (1430 MicroBeta, Wallac, Turku, Finland). The 50% inhibitory concentration (IC50) was defined as the concentration of inhibitor, expressed in micromolar, that gave a 50% decrease in ^3[H]-thymidine uptake compared with controls.
as §5, with “protein bcr-abl, Abl-negative” for “protein NPM/ALK, NPM/ALK positive SUDHL-1 cells, ALK-negative”, “cells, or Bcr-abl” for “cells, NPM/ALK”, “positive LAMA-84” for “positive KARPAS-299”, “and Abl-negative” for “and Alk-negative”, “in ^3H-thymidine” for “in ^3[H]-thymidine”
as §5, with “RET-PTC2, or RET-negative 11937” for “NPM/ALK, NPM/ALK positive SUDHL-1 cells, ALK-negative U937 cells, NPM/ALK positive KARPAS-299”, “RET-negative” for “Alk-negative”

[5] = system: NPM/ALK positive SUDHL-1 cells; experiment: Tritiated thymidine uptake cell proliferation assay, SUDHL-1; format: cell-based; conditions: 3[H]-thymidine uptake, 72 h
Experimental: (§6) Inhibition of the proliferation of NPM/ALK positive cells
as §4, §5

[6] = molecular target: T4, BaF3 cells transformed with the oncogenic fusion protein NPM/ALK (Homo sapiens, UniProt Q9UM73); experiment: Tritiated thymidine uptake cell proliferation assay, BaF3 NPM/ALK; format: cell-based; conditions: 3[H]-thymidine uptake, 72 h; read-out: BaF NPM/ALK IC50
T4 construct: fused on or other part: P06748 (Nucleophosmin)
Experimental: as §6, §4, §5

T4 sequence (Q9UM73 whole entry, change not shown, the tested form may be a part): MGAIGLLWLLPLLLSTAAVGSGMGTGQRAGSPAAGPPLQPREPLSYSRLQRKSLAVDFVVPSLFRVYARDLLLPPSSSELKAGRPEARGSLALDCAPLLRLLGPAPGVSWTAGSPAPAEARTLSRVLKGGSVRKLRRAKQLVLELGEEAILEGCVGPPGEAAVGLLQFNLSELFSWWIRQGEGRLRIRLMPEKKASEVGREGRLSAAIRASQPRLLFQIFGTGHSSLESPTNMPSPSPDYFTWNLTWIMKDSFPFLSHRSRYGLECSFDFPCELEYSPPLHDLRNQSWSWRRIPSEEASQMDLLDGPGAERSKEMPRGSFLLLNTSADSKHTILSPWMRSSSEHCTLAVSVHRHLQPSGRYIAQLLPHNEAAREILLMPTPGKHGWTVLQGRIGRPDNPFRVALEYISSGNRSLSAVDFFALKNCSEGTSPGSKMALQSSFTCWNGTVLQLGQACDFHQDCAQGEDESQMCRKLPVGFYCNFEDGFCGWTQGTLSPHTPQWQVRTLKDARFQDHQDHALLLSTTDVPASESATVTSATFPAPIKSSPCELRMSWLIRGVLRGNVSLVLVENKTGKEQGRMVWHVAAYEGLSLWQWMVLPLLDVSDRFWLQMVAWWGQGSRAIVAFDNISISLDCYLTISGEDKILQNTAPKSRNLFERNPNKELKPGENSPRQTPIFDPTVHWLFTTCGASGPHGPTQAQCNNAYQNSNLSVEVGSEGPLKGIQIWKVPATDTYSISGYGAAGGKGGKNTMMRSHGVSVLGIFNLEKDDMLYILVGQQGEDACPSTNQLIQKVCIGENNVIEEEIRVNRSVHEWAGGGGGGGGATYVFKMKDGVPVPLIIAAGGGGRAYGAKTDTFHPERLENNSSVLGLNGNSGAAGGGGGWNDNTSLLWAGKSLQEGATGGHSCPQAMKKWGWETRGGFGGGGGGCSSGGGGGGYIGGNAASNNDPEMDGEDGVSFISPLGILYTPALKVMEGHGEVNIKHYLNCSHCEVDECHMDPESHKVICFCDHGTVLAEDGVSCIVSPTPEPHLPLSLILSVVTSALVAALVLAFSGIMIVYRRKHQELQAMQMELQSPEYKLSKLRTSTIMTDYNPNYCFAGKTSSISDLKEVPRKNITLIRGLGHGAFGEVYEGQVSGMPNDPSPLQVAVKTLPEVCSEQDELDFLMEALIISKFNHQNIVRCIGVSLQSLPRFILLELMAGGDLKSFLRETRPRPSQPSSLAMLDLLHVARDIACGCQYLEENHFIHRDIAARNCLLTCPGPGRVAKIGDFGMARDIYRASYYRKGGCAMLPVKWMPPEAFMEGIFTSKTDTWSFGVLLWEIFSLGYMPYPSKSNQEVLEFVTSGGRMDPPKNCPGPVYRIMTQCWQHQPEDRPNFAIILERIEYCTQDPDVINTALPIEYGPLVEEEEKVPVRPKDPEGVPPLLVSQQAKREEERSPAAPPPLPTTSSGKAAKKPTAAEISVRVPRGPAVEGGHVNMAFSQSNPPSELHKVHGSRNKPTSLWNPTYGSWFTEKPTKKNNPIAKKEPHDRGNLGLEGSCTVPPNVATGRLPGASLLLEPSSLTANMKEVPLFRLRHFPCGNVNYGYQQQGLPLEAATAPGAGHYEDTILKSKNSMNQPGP
T1 sequence (P07949 29-1114): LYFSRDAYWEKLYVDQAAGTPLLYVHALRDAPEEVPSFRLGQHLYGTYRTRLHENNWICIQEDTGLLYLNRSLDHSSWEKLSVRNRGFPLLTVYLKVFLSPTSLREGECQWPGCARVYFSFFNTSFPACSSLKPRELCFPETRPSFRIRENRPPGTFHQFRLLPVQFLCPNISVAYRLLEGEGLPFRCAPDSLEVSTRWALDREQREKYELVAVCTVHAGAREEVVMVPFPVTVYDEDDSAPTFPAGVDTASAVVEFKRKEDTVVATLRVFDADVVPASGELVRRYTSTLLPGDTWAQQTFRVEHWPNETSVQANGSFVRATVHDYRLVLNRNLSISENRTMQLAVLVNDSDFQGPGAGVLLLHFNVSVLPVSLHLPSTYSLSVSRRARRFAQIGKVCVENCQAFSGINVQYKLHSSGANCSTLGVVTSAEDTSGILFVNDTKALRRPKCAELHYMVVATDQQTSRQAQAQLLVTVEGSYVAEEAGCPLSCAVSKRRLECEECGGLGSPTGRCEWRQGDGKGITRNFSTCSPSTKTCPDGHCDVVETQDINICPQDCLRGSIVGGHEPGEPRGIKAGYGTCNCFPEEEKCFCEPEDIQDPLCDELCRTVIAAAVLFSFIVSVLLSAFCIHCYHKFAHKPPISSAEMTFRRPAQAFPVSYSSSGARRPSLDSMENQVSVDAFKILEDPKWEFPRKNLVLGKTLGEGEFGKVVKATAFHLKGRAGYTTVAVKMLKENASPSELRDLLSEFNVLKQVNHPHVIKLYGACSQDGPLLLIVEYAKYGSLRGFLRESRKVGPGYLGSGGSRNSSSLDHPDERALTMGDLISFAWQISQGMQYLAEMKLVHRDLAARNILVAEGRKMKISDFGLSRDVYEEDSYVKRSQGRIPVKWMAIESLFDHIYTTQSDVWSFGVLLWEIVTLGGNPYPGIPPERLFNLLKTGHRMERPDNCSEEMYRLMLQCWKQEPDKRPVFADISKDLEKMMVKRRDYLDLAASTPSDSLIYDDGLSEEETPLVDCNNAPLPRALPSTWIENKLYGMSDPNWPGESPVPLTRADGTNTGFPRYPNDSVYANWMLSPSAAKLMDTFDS
T3 sequence (Q9UM73 19-1620): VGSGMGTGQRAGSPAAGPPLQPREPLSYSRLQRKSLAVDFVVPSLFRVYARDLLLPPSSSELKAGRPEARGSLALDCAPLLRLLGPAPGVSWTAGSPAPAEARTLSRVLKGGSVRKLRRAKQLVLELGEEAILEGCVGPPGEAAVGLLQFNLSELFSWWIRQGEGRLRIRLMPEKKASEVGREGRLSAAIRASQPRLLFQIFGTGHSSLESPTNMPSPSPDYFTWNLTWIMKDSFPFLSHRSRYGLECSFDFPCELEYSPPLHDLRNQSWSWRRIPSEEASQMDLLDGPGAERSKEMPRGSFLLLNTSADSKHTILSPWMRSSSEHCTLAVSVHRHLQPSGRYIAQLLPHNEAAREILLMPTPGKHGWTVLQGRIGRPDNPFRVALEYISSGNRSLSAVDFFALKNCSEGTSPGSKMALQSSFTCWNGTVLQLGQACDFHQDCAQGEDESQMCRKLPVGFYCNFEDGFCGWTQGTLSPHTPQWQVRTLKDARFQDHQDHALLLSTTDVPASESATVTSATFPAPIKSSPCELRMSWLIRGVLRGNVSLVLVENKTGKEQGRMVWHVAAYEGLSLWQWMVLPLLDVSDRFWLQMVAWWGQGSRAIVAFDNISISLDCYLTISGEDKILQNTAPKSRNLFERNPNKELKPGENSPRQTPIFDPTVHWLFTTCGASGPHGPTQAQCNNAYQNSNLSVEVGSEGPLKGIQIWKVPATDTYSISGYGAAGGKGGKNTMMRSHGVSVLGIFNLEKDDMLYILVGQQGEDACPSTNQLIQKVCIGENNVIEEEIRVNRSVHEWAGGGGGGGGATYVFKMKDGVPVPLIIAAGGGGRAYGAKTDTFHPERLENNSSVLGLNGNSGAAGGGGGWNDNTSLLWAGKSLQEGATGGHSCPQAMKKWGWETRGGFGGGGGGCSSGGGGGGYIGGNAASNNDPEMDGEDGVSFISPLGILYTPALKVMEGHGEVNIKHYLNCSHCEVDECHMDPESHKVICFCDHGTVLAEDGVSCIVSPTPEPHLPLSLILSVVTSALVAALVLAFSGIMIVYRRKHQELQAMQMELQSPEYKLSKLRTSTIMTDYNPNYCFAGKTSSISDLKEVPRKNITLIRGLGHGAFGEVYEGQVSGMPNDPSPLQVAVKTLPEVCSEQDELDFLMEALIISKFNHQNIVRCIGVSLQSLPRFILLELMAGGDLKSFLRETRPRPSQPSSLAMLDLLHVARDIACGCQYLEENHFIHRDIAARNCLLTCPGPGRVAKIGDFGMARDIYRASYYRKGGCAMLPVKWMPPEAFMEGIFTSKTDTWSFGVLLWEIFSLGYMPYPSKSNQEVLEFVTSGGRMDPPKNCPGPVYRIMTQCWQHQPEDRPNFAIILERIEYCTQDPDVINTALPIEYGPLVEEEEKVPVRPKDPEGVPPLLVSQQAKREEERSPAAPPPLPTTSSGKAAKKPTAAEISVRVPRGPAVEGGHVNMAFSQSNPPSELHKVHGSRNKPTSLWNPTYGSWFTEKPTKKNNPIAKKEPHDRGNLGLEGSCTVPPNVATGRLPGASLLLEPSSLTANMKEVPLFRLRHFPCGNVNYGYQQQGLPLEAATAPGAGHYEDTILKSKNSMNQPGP

Structure (SMILES)	IC50 [1]	IC50 [2]	IC50 [3]	IC50 [5]	GI50 [6]	melting point	IC50 [4]
O=c1[nH]c(-c2ccc3[nH]c4ncccc4c3c2)cs1 [R221, 4-(9H-pyrido[2,3-b]indol-6-yl)thiazol-2(3H)-one]	82 ± 3.2 µM	53 ± 16 µM	19 ± 1.8 µM				
O=Cc1ccc2[nH]c3ncc(Cl)cc3c2c1 [R267]	34 ± 27 µM	20 ± 0.67 µM		9.4 µM			17 µM
Oc1cnc2[nH]c3ccc(CCc4ccccc4)cc3c2c1 [R276]	1 µM		0.5 ± 0.1 µM		> 25 µM		> 25 µM
O=C(CSc1cccc(Br)c1)c1ccc2[nH]c3ncc(Cl)cc3c2c1 [R279, 2-(3-Bromophenylsulfanyl)-1-(3-chloro-9H-pyrido[2,3-b]indol-6-yl)ethanone]	3.6 µM	> 100 µM			> 50 µM		> 50 µM
O=C(CSCCOc1ccccc1)c1ccc2[nH]c3ncc(Cl)cc3c2c1 [R280, 1-(3-Chloro-9H-pyrido[2,3-b]indol-6-yl)-2-(2-phenoxyethylsulfanyl)ethanone]	3.6 µM	33 µM			> 50 µM		37 µM
CN(C)CCSCC(=O)c1ccc2[nH]c3ncc(Cl)cc3c2c1 [R284, 1-(3-Chloro-9H-pyrido[2,3-b]indol-6-yl)-2-(2,2-dimethylaminoethylsulfanyl)ethanone]	41 µM	> 100 µM	36 ± 14 µM				
C(=C\c1ccc2c(n1)[nH]c1ccccc12)/c1ccccc1 [R300, 2-(2′-phenylethenyl)-9H-pyrido[2,3-b]indole]	4.8 µM	> 100 µM		> 100 µM	80 µM		> 100 µM
O=[N+]([O-])c1cccc(-c2ccnc3[nH]c4ccccc4c23)c1 [R331, 4-(3-nitrophenyl)-9H-pyrido[2,3-b]indole]			> 100 µM		40 µM	> 220 °C	> 100 µM

More lines, main results first:

IC50 [1]	IC50 [2]	IC50 [3]	IC50 [5]	GI50 [6]	melting point	Structure (SMILES)	IC50 [4]
19 µM	41 µM		> 25 µM	2.5 µM		O=C(CSc1ccccn1)c1ccc2[nH]c3ncc(Cl)cc3c2c1 [R272, 1-(3-Chloro-9H-pyrido[2,3-b]indol-6-yl)-2-(pyridin-2-ylsulfanyl)ethanone]	2 µM
2 µM	4.4 µM		> 25 µM	19 µM		O=C(CSc1nc2ccccc2s1)c1ccc2[nH]c3ncc(Cl)cc3c2c1 [R273, 2-(Benzothiazol-2-ylsulfanyl)-1-(3-chloro-9H-pyrido[2,3-b]indol-6-yl)ethanone]	14 µM
14 µM	19 µM		0.6 µM	1 µM		O=C(CSc1nc2ccccc2[nH]1)c1ccc2[nH]c3ncc(Cl)cc3c2c1 [R274, 2-(1H-Benzoimidazol-2-ylsulfanyl)-1-(3-chloro-9H-pyrido[2,3-b]indol-6-yl)ethanone]	0.9 µM
9.5 µM	36 µM		0.7 µM	14 µM		O=C(CSC1=NCCS1)c1ccc2[nH]c3ncc(Cl)cc3c2c1 [R282, 1-(3-chloro-9H-pyrido[2,3-b]indol-6-yl)-2-(4,5-dihydrothiazol-2-ylsulfanyl)éthanone]	32 µM
5.7 µM	48 µM		0.2 ± 0.02 µM	0.5 ± 0.2 µM		CCN(CC)CCSCC(=O)c1ccc2[nH]c3ncc(Cl)cc3c2c1 [R283, 1-(3-Chloro-9H-pyrido[2,3-b]indol-6-yl)-2-(N,N-diethylaminoethylsulfanyl)ethanone]	3.6 ± 1.8 µM
> 100 µM	3.1 ± 0.1 µM	0.5 ± 0.1 µM		40 µM		C(=C\c1cnc2[nH]c3ccc(-c4ccc(N5CCOCC5)cn4)cc3c2c1)/c1ccccc1 [R307, 6-(5-morpholin-4-yl-pyridin-2-yl)-3-(2′-phenylethenyl)-9H-pyrido[2,3-b]indole]	> 100 µM
	1.6 µM	4 ± 0.2 µM		25 µM	208 to 210 °C	COc1ccc(-c2ccnc3[nH]c4ccccc4c23)cc1 [R309, 4-(4-methoxyphenyl)-9H-pyrido[2,3-b]indole]	15 µM
				19 µM	208 to 210 °C	c1coc(-c2ccc3c(n2)[nH]c2ccccc23)c1 [R326, 2-(furan-2-yl)-9H-pyrido[2,3-b]indole]	8.8 µM
				26 µM	> 220 °C	c1coc(-c2ccnc3[nH]c4ccccc4c23)c1 [R327, 4-(furan-2-yl)-9H-pyrido[2,3-b]indole]	> 100 µM
